pKi: −log10 of the molar value. Where a name gives a salt, the structure may show the parent alone. A value given as a limit tells only on which side of the number the result lay.

The target of this assay is T1, human thrombin (Homo sapiens, UniProt P00734).
T1 construct: 0.2-0.5 nM human thrombin or human factor Xa; purchased Enzyme Research Laboratories, South Bend, Ind
The assay can be described thus: Inhibition of thrombin hydrolysis of chromogenic substrate S2238 (Ki). The note with it: S2238, pH 7.5. Type of assay: biochemical. The method, then: The effectiveness of compounds of the present invention as inhibitors of blood coagulation proteases was determined using purified human proteases and synthetic substrates following procedures similar to those described in Kettner et al. (1990).
For these assays, the rate of enzymatic (thrombin, Factor Xa, and Factor VIIa) hydrolysis of chromogenic substrates (S2238 (H-D-Phe-Pip-Arg-pNA), S2222, and S2288, respectively; Kabi Pharmacia, Franklin, Ohio) was measured both in the absence and presence of compounds of the present invention. […] A decrease in the rate of absorbance change at 405 nm in the presence of inhibitor is indicative of enzyme inhibition. The results of this assay are expressed as inhibitory constant, Ki.
Thrombin and Xa determinations were made in 0.10M sodium phosphate buffer, pH 7.5, containing 0.20M NaCl, and 0.5% PEG 8000. VIIa determinations were made in 0.05M tris buffer, pH 7.6, containing 0.10M NaCl, 4 mM CaCl2, and 0.1% bovine serum albumin.
Reactions were allowed to go for 30 minutes and the velocities (rate of absorbance change vs time) were measured in the time frame of 25-30 minutes. The following relationship was used to calculate Ki values. [formula] where: vo is the velocity of the control in the absence of inhibitor;
vs is the velocity in the presence of inhibitor;
I is the concentration of inhibitor;
Ki is the dissociation constant of the enzyme: inhibitor complex;
S is the concentration of substrate;
Km is the Michaelis constant.
`CC1(C)C2CC3OB(C(Cc4cccc(C#N)c4)NC(=O)[C@@H]4CCCN4C(=O)/C=C/c4cccnc4)OC3(C)C1C2` (stereo in doubt) [Example 42, trans-3-(3-pyridyl)acryl-Pro--boroPhe(m-CN)--C10 H16]: the pKi (usually the negative decadic logarithm of the Ki, by convention in mol/L) is greater than 6.30.
As for `CC(=O)N[C@H](Cc1ccccc1)C(=O)N1CCC[C@H]1C(=O)NC(CCCCC#N)B1OC2CC3CC(C3(C)C)C2(C)O1` (stereo partly drawn) [Example 1, Ac--(D)Phe--Pro--NH--CH[(CH2)4 CN]BO2 C10 H16], the figure is greater than 4.30.
As for `CC(=O)NC(Cc1ccccc1)C(=O)N1CCCC1C(=O)NC(CCCCC(=N)N)B1OC2CC3CC(C3(C)C)C2(C)O1` (stereo not drawn) [Example 2, Ac--(D)Phe--Pro--NH--CH[(CH2)4 --C(NH)NH2]BO2 C10 H16.BSA], the figure is greater than 6.30.
As for `CC(C)(C)OC(=O)N[C@H](Cc1ccccc1)C(=O)N1CCC[C@H]1C(=O)NC(CCCNC=N)B1OC2CC3CC(C3(C)C)C2(C)O1` (stereo partly drawn) [Example 6, Boc--(D)Phe--Pro--boroOrn(CH=NH)]--C10 H16.0.5 HCl.0.5 BSA], the figure is greater than 6.30; as for `CC(=O)NC(Cc1ccccc1)C(=O)N1CCCC1C(=O)NC(Cc1cccc(CN)c1)B1OC2CC3CC(C3(C)C)C2(C)O1` (stereo not drawn) [Example 13, Ac--(D)Phe--Pro--boroPhe--(m-CH2NH2)--C10 H16.HCl], greater than 6.30; as for `CC(=O)N[C@H](Cc1ccccc1)C(=O)N1CCC[C@H]1C(=O)N[C@@H](Cc1cccc(Br)c1)B1O[C@@H]2C[C@@H]3C[C@@H](C3(C)C)[C@]2(C)O1` [Example 14, Ac--(D)Phe--Pro--boroPhe(m-Br)--C10 H16], greater than 6.30.
As to `CC(=O)NC(Cc1ccccc1)C(=O)N1CCCC1C(=O)NC(CCCNC(N)=NC#N)B1OC2CC3CC(C3(C)C)C2(C)O1` (stereo not drawn) [Example 15, Ac--(D)Phe--Pro--boroArg(CN)--C10 H16.HCl], the pKi was greater than 6.30.
`CC(=O)NC(Cc1ccccc1)C(=O)N1CCCC1C(=O)NC(Cc1ccc(C#N)cc1)B1OC2CC3CC(C3(C)C)C2(C)O1` (stereo not drawn) [Example 16, Ac--(D)Phe--Pro--boroPhe(p-CN)--C10 H16] gave a pKi greater than 6.30.
As for `CC(C)(C)OC(=O)NC(Cc1ccccc1)C(=O)N1CCCC1C(=O)NC(Cc1cccc(C#N)c1)B1OC2CC3CC(C3(C)C)C2(C)O1` (stereo not drawn) [Example 17, Boc--(D)Phe--Pro--boroPhe(m-CN)--C10 H16], the figure is greater than 6.30.
For `N#Cc1cccc(CC(NC(=O)C2CCCN2C(=O)C(N)Cc2ccccc2)B(O)O)c1` (stereo not drawn) [Example 19, H--(D)Phe--Pro--boroPhe(m-CN)--OH.HCl] the value was greater than 6.30.
For `CC(=O)NC(Cc1ccccc1)C(=O)N1CCCC1C(=O)NC(Cc1ccc(CN)cc1)B1OC2CC3CC(C3(C)C)C2(C)O1` (stereo not drawn) [Example 21, Ac--(D)Phe--Pro--boroPhe(p-CH2 NH2)--C10 H16.BSA] the value was greater than 6.30.
Compound `CC(=O)NC(Cc1ccccc1)C(=O)N1CCCC1C(=O)NC(Cc1ccc(C(=N)N)cc1)B1OC2CC3CC(C3(C)C)C2(C)O1` (stereo not drawn) [Example 22, Ac--(D)Phe--Pro--boroPhe(p-C(NH)NH2)--C10 H16.BSA] gave a pKi greater than 6.30.
For `CC1(C)C2CC3OB(C(Cc4cccc(C#N)c4)NC(=O)C4CCCN4)OC3(C)C1C2` (stereo not drawn) [Example 26, H--Pro--boroPhe(m-CN)--C10 H16.HCl] the value was greater than 4.30.
For `CN(C(=O)OC(C)(C)C)C(Cc1ccccc1)C(=O)N1CCCC1C(=O)NC(Cc1cccc(C#N)c1)B1OC2CC3CC(C3(C)C)C2(C)O1` (stereo not drawn) [Example 33, N--Boc--N--CH3 --(D)Phe--Pro--boroPhe(m-CN)--C10 H16] the value was greater than 6.30; for `CC1(C)C2CC3OB(C(Cc4cccc(C#N)c4)NC(=O)C4CCCN4C(=O)CSc4ncccn4)OC3(C)C1C2` (stereo not drawn) [Example 41, (2-Pyrimidylthio)acetyl-Pro--boroPhe(m-CN)--C10 H16], greater than 6.30; for `CC1(C)C2CC3OB(C(Cc4cccc(C#N)c4)NC(=O)C4CCCN4C(=O)CSc4ccncc4)OC3(C)C1C2` (stereo not drawn) [Example 43, (4-Pyridylthio)acetyl-Pro--boroPhe(m-CN)--C10 H16], greater than 6.30.
As for `N#Cc1cccc(CC(NC(=O)C2CCCN2C(=O)C(Cc2ccccc2)NC(=O)CCC(=O)O)B(O)O)c1` (stereo not drawn) [Example 44, Succinyl-(D)Phe--Pro--boroPhe(m-CN)--OH], the figure is greater than 6.30; as for `CC1(C)C2CC3OB(C(Cc4cccc(C#N)c4)NC(=O)C4CCCN4C(=O)CCc4cccnc4)OC3(C)C1C2` (stereo not drawn) [Example 45, 3-Pyridylpropionyl-Pro--boroPhe(m-CN)--C10 H16], greater than 6.30; as for `CC(C)(C)OC(=O)NC(Cc1ccccc1)C(=O)N1CCC1C(=O)NC(Cc1cccc(C#N)c1)B1OC2CC3CC(C3(C)C)C2(C)O1` (stereo not drawn) [Example 46, Boc--(D)Phe--Aze--boroPhe(m-CN)--C10 H16], greater than 6.30.
`CC1(C)C2CC3OB(C(Cc4cccc(C#N)c4)NC(=O)C4CCN4C(=O)C(N)Cc4ccccc4)OC3(C)C1C2` (stereo not drawn) [Example 47, H--(D)Phe--Aze--boroPhe(m-CN)--C10 H16.HCl] showed a pKi greater than 6.30.
For `CCCS(=O)(=O)N[C@H](Cc1ccccc1)C(=O)N1CCC[C@H]1C(=O)N[C@@H](CCCNC=N)B(O)O` [Example 63, CH3 CH2 CH2 SO2 --(D)Phe--Pro--boroOrn(CH=NH)--OH.HCl] the value was greater than 6.30.
In turn, `CCCS(=O)(=O)NC(Cc1ccccc1)C(=O)N1CCCC1C(=O)NC(CCCNC(=N)NC)B(O)O` (stereo not drawn) [Example 64, CH3 CH2 CH2 SO2 --(D)Phe--Pro--boroArg(CH3)--OH.HCl] had a pKi greater than 6.30.
As to `CC(=O)NC(Cc1ccccc1)C(=O)N(C)CC(=O)NC(CCCNC=N)B(O)O` (stereo not drawn) [Example 67, Ac--(D)Phe--Sar--boroOrn(CH=NH)--OH.HCl], the pKi is greater than 6.30.
For `CN(CC(=O)NC(CCCNC=N)B(O)O)C(=O)C(Cc1ccccc1)NS(C)(=O)=O` (stereo not drawn) [Example 68, Ms--(D)Phe--Sar--boroOrn(CH=NH)--OH.HCI] the value was greater than 6.30; for `CN(CC(=O)NC(CCCNC=N)B(O)O)C(=O)C(Cc1ccccc1)NS(=O)(=O)CCc1ccccc1` (stereo not drawn) [Example 69, Phenethyl-SO2 --(D)Phe--Sar--boroOrn(CH=NH)--OH.HCl], greater than 6.30.
For `CN(CC(=O)NC(CCCNC=N)B(O)O)C(=O)C(Cc1ccccc1)NC(=O)OC(C)(C)C` (stereo not drawn) [Example 70, Boc--(D)Phe--Sar--boroOrn(CH=NH)--OH.HCl] the value was greater than 6.30.
For `CN(CC(=O)NC(Cc1cccc(C#N)c1)B1OC2CC3CC(C3(C)C)C2(C)O1)C(=O)C(Cc1ccccc1)NC(=O)OC(C)(C)C` (stereo not drawn) [Example 73, Boc--(D)Phe--Sar--boroPhe(m-CN)--C10 H16] the value was greater than 6.30.
`CC1(C)C2CC3OB(C(CCCNC=N)NC(=O)c4ccc(-c5ccccc5)cc4)OC3(C)C1C2` (stereo not drawn) [Example 76, 4-(Phenyl)benzoyl-boroOrn(CH=NH)--C10 H16.HCl] gave a pKi greater than 6.30.
Compound `CC1(C)C2CC3OB(C(CCCON)NC(=O)C4CCCN4C(=O)C(Cc4ccccc4)NS(=O)(=O)Cc4ccccc4)OC3(C)C1C2` (stereo not drawn) [Example 103, PhCH2 SO2 --(D)Phe--Pro--boroGly[(CH2)3 --ONH2]--C10 H16.HCl] gave a pKi greater than 6.30.
For `CC(C)(C)OC(=O)NC(Cc1ccccc1)C(=O)N1CCCC1C(=O)NC(CCCONC(=N)N)B1OC2CC3CC(C3(C)C)C2(C)O1` (stereo not drawn) [Example 104, Boc--(D)Phe--Pro--boroGly[(CH2)3 --ONHC(=NH)NH2]--C10 H16.HCl] the value was greater than 6.30.

Source of the values: patent US5658885A, “Amidino and guanidino substituted boronic acid inhibitors of trypsin-like enzymes” (The DuPont Merck Pharmaceutical Company, priority 1994, dated 1997).
